Here are results for seven compounds from EPA's ToxRefDB 2.

By LOAEL is commonly meant the lowest dose or exposure tested at which an adverse effect was seen. Usually NOAEL stands for the highest dose or exposure tested at which no adverse effect was seen.

Data set [1] has as its system mouse. The conditions noted are these: Carcinogenicity; other; Oral; Feed; dose end: 18 month; group: systemic; systemic / in life observation / body weight / body weight + systemic / in life observation / body weight / body weight gain + systemic / in….
Data set [2] relates to rat. The conditions noted are these: Subchronic oral toxicity in rodents, other, Feed, dose end: 3 month, group: systemic.
A further data set relates to rabbit. The conditions noted are these: Prenatal developmental toxicity study, chinchilla, Oral, Gavage/Intubation, dose end: 19 GD.
Data set [3] deals with dog. The conditions noted are these: Subchronic oral toxicity in nonrodent, beagle, Feed, dose end: 13 week, group: systemic, systemic / pathology microscopic / liver / infiltration cellular + systemic / pathology microscopic / liver / necrosis + systemic / ….
The subject of data set [4] is dog. The conditions noted are these: Chronic toxicity; beagle; Oral; Feed; dose end: 12 month; group: systemic; systemic / in life observation / body weight / body weight gain + systemic / in life observation / food consumption / food consumption + ….
Data set [5] has as its system rat. The conditions noted are these: Prenatal developmental toxicity study, other, Oral, Gavage/Intubation, dose end: 15 GD.
Data set [6] relates to mouse. The conditions noted are these: Subchronic oral toxicity in rodents, b6c3f1, Gavage/Intubation, dose end: 14 week, group: systemic.
In data set [7] the test system is rat. The conditions noted are these: Carcinogenicity; fischer; Oral; Gavage/Intubation; dose end: 2 year; group: systemic; systemic / pathology microscopic / kidney / nephropathy + systemic / pathology microscopic / liver / clear cell focus + systemic / pathology….
The subject of data set [8] is mouse. The conditions noted are these: Carcinogenicity; b6c3f1; Oral; Gavage/Intubation; dose end: 2 year; group: systemic; systemic / pathology microscopic / bone marrow / hyperplasia + systemic / pathology microscopic / liver / hypertrophy + systemic / pathology….
The test system of data set [9] is rat. The conditions noted are these: Subchronic oral toxicity in rodents, fischer, Gavage/Intubation, dose end: 14 week.
The test system of data set [10] is rat. The conditions noted are these: Subchronic oral toxicity in rodents, Feed, dose end: 13 week, group: systemic, systemic / clinical chemistry / aspartate aminotransferase (ast/sgot) / aspartate aminotransferase (ast/sgot) + systemic / clinical ….
Data set [11] concerns rat. The conditions noted are these: Chronic toxicity, fischer, Oral, [Not Specified], dose end: 24 month, group: systemic.
For data set [12], the system named is dog. The conditions noted are these: Chronic toxicity; beagle; Oral; Feed; dose end: 52 week; group: systemic; systemic / in life observation / body weight / body weight + systemic / in life observation / food consumption / food consumption + systemic….
Data set [13] relates to mouse. The conditions noted are these: Prenatal developmental toxicity study, cd1, Oral, Gavage/Intubation, dose end: 15 GD.
For data set [14], the system named is rat. The conditions noted are these: Prenatal developmental toxicity study, sprague dawley, Oral, Gavage/Intubation, dose end: 15 GD.
For data set [15], the system named is rat. The conditions noted are these: Prenatal developmental toxicity study, sprague dawley, Oral, Gavage/Intubation, dose end: 15 GD, group: maternal.
For data set [16], the system named is rat. The conditions noted are these: Subchronic oral toxicity in rodents, sprague dawley, Gavage/Intubation, dose end: 30 day, group: systemic, systemic / in life observation / clinical signs / soft stools + systemic / in life observation / clinical signs / urine, discoloration.
For data set [17], the system named is rat. The conditions noted are these: Multigenerational reproductive toxicity study, sprague dawley, Oral, Gavage/Intubation, dose end: 1 generation, group: parental.
Data set [18] deals with rat. The conditions noted are these: Subchronic oral toxicity in rodents, fischer, Feed, dose end: 13 week, group: systemic, systemic / clinical chemistry / alanine aminotransferase (alt/sgpt) / alanine aminotransferase (alt/sgpt) + systemic / clinical chemistry / ….
[19] abbreviates: systemic / pathology microscopic / urinary bladder / hyperplasia + systemic / clinical chemistry / bilirubin / total bilirubin.
Setting [20] is: systemic / pathology microscopic / urinary bladder / hyperplasia + systemic / pathology microscopic / kidney / atrophy + systemic / ….
Setting [21] is: group: developmental, developmental / developmental malformation / bone / unossified.
Where [22] appears, read: group: maternal, systemic / in life observation / mortality / mortality.
[23] abbreviates: group: maternal, systemic / in life observation / mortality / mortality + systemic / in life observation / clinical signs / reduced motor activity + systemic….
[24] abbreviates: group: developmental, developmental / developmental malformation / bone / bipartite ossification + developmental / developmental malformation / bone / dumbbell ….
[25] abbreviates: group: maternal, systemic / in life observation / body weight / body weight gain + systemic / in life observation / clinical signs / odorous urine + systemic….
The mark [26] stands for this setting: systemic / hematology / heinz body / heinz body + systemic / hematology / methemoglobin / methemoglobin + systemic / in life observation / ….
Setting [27] is: systemic / organ weight / liver / absolute + systemic / organ weight / liver / relative to body weight + systemic / pathology microscopic / ….
Setting [28] is: group: maternal, reproductive / reproductive performance / estrous cycle / abnormal.
[29] abbreviates: group: systemic, systemic / clinical chemistry / alanine aminotransferase (alt/sgpt) / alanine aminotransferase (alt/sgpt) + systemic / clinical chemistry / ….
[30] abbreviates: systemic / pathology microscopic / testes / atrophy.
Where [31] appears, read: group: developmental, systemic / in life observation / body weight / fetal weight.
[32] abbreviates: group: maternal, systemic / in life observation / mortality / mortality + systemic / organ weight / liver / absolute + systemic / organ weight / uterus / nos.
Setting [33] is: group: maternal, systemic / in life observation / body weight / body weight gain + systemic / in life observation / clinical signs / fur (altered appearance….
Setting [34] is: systemic / in life observation / clinical signs / salivation + systemic / in life observation / clinical signs / soft stools + systemic / in….
The mark [35] stands for this setting: systemic / clinical chemistry / albumin / albumin + systemic / clinical chemistry / albumin-globulin ratio / albumin-globulin ratio + ….
The mark [36] stands for this setting: systemic / clinical chemistry / cholesterol / cholesterol.

The structures appear in SMILES notation.

As for `CCCCCC(C)OC(=O)COc1ccc(Cl)c2cccnc12` (stereo unspecified) [Cloquintocet-mexyl], the LEL in the data set with mouse [1] amounted to 520 mg/kg/day; with rat [2] (setting [19]) it was 63.9 mg/kg/day; in the data set with rabbit (setting [21]), 60 mg/kg/day; with rabbit (setting [23]), 300 mg/kg/day; in the data set with dog [3], 30.2 mg/kg/day; in the data set with dog [4] it was 196 mg/kg/day. Moreover, the LEL in the data set on rat [5] (setting [24]) and in the data set with rat [5] (setting [25]) was 400 mg/kg/day throughout. The LOAEL in the data set with mouse [1] is 520 mg/kg/day; in the data set on rat [2] (setting [19]), 63.9 mg/kg/day; in the data set on rabbit (setting [21]) it was above 300 mg/kg/day; in the data set with rabbit (setting [22]), 300 mg/kg/day; in the data set with dog [3] it was 30.2 mg/kg/day; in the data set on dog [4] it was 196 mg/kg/day. The LOAEL in the data set with rat [5] (setting [24]) and with rat [5] (setting [25]) was 400 mg/kg/day throughout. Also, the NEL is 102 mg/kg/day in the data set on mouse [1]; 9.66 mg/kg/day in the data set on rat [2] (setting [20]); 10 mg/kg/day in the data set with rabbit (setting [21]); 60 mg/kg/day in the data set with rabbit (setting [23]); 3.3 mg/kg/day with dog [3]; 43 mg/kg/day with dog [4]. Further, the NEL in the data set with rat [5] (setting [24]) and in the data set with rat [5] (setting [25]) was 100 mg/kg/day each time. Also, the NOAEL is 102 mg/kg/day in the data set on mouse [1]; 9.66 mg/kg/day in the data set with rat [2] (setting [20]); at least 300 mg/kg/day in the data set on rabbit (setting [21]); 60 mg/kg/day with rabbit (setting [23]); 3.3 mg/kg/day in the data set with dog [3]; 43 mg/kg/day in the data set with dog [4]. Besides, the NOAEL in the data set with rat [5] (setting [24]) and with rat [5] (setting [25]) was 100 mg/kg/day throughout.

As to `Cc1ccc(N(C)C)cc1` [N,N,4-Trimethylaniline], the LOAEL in the data set with mouse [6] (setting [26]) is above 250 mg/kg/day; in the data set with rat [7], above 60 mg/kg/day; with mouse [8] it was 6 mg/kg/day; in the data set on rat [9] (setting [28]), above 1000 mg/kg/day; in the data set with rat [9] (setting [29]), above 1000 mg/kg/day. Besides, the NOAEL with mouse [6] (setting [26]) was at least 250 mg/kg/day; with rat [7] it was at least 60 mg/kg/day; with mouse [8], below 6 mg/kg/day; with rat [9] (setting [28]), at least 1000 mg/kg/day; in the data set with rat [9] (setting [29]), at least 1000 mg/kg/day. In addition, the LEL amounted to 15 mg/kg/day in the data set on mouse [6] (setting [27]); 6 mg/kg/day in the data set with rat [7]; 6 mg/kg/day with mouse [8]; 125 mg/kg/day in the data set with rat [9] (setting [28]); 62.5 mg/kg/day in the data set on rat [9] (setting [29]). Also, the NEL in the data set on mouse [6] (setting [27]) was below 15 mg/kg/day; in the data set on rat [7], below 6 mg/kg/day; in the data set on mouse [8], below 6 mg/kg/day; with rat [9] (setting [28]) it was 62.5 mg/kg/day; with rat [9] (setting [29]) it was below 62.5 mg/kg/day.

Consider `Cc1ccccc1CO[C@@H]1C[C@@]2(C(C)C)CC[C@]1(C)O2` [Cinmethylin], for which the LEL in the data set with rat [10] turned out to be 1.5 mg/kg/day; in the data set on rat [11] (setting [30]) it was 1.5 mg/kg/day; in the data set with dog [12], 75 mg/kg/day. The LOAEL in the data set with rat [10] was above 50 mg/kg/day; in the data set on rat [11] (systemic / pathology microscopic / kidney / nephropathy), 150 mg/kg/day; in the data set with dog [12], 75 mg/kg/day. The NEL was below 1.5 mg/kg/day in the data set on rat [10], below 1.5 mg/kg/day with rat [11] (setting [30]) and 7.5 mg/kg/day in the data set with dog [12]. Moreover, the NOAEL is at least 50 mg/kg/day in the data set on rat [10], 5 mg/kg/day in the data set with rat [11] (systemic / pathology microscopic / kidney / nephropathy + systemic / organ weight / liver / relative to body weight + systemic / organ …) and 7.5 mg/kg/day in the data set with dog [12].

For `CN(C)[C@@H]1C(=O)C(C(N)=O)=C(O)[C@@]2(O)C(=O)C3=C(O)c4c(O)cccc4[C@@](C)(O)[C@H]3[C@H](O)[C@@H]12` [Oxytetracycline], the LEL amounted to 2100 mg/kg/day in the data set on mouse [13] (setting [31]), 1320 mg/kg/day in the data set with mouse [13] (setting [22]), 1200 mg/kg/day with rat [14] (setting [31]) and 1200 mg/kg/day with rat [14] (setting [33]). Also, the LOAEL with mouse [13] (setting [31]) was above 2100 mg/kg/day; in the data set with mouse [13] (setting [32]) it was above 2100 mg/kg/day; in the data set with rat [14] (setting [31]), above 1500 mg/kg/day; with rat [14] (setting [33]), above 1500 mg/kg/day. In addition, the NEL is 1670 mg/kg/day in the data set on mouse [13] (setting [31]), below 1320 mg/kg/day in the data set with mouse [13] (setting [22]), below 1200 mg/kg/day with rat [14] (setting [31]) and below 1200 mg/kg/day with rat [14] (setting [33]). For the same compound, the NOAEL in the data set with mouse [13] (setting [31]) is at least 2100 mg/kg/day; with mouse [13] (setting [32]), at least 2100 mg/kg/day; in the data set on rat [14] (setting [31]) it was at least 1500 mg/kg/day; with rat [14] (setting [33]), at least 1500 mg/kg/day.

Regarding `O=C(O)c1c(Cl)c(Cl)c(C(=O)O)c(Cl)c1Cl` [Chlorthal], in the data set with rat [15] (systemic / in life observation / clinical signs / salivation + systemic / in life observation / clinical signs / soft stools), the lowest-observed-adverse-effect level (LOAEL) worked out at 2500 mg/kg/day. For the same compound, in the data set on rat [15] (setting [34]), the LEL amounted to 2500 mg/kg/day, the NEL was found to be 1250 mg/kg/day and the NOAEL was 1250 mg/kg/day. In addition, in the data set on rat [16], the LEL stood at 2000 mg/kg/day, the LOAEL turned out to be 2000 mg/kg/day, the NEL amounted to 500 mg/kg/day and the NOAEL is 500 mg/kg/day.

For the compound `O=S(=O)([O-])C(F)(F)C(F)(F)C(F)(F)C(F)(F)C(F)(F)C(F)(F)F.[K+]` [PFHS-K], in the data set with rat [17] (setting [35]), the LOAEL is above 10 mg/kg/day and the NOAEL was at least 10 mg/kg/day. In addition, in the data set with rat [17] (setting [36]), the LEL came out at 0.3 mg/kg/day and the NEL was below 0.3 mg/kg/day.

For the compound `CC(C)CCCCCOC(=O)c1nc(Cl)c(Cl)c(N)c1Cl` [Picloram-isoctyl], in the data set on rat [18], the LEL was found to be 220 mg/kg/day, the LOAEL was found to be 220 mg/kg/day, the NEL turned out to be 73 mg/kg/day and the no-observed-adverse-effect level (NOAEL) was found to be 73 mg/kg/day.
